Measurements as given in US6410486B1 (priority 1997, dated 2002).
Read-outs that look alike come from different tables or passages of the source.

Tested on: Pyricularia oryzae
Type: in vivo
Details: root application as in Use Example 2, untreated control 80%

CC(NC(=O)C(C#N)C1CC1)c1ccc(Cl)cc1 (centres unmarked) [I.1, N-(4′-Chlorophenyl)ethyl-1-cyclopropyl-1-cyanoacetamide]
% infestation of leaves after application of an aqueous active compound preparation containing . . . ppm (10 ppm): 20% | % infestation of leaves after application of an aqueous active compound preparation containing . . . ppm (50 ppm): 5%
